Data from US20110092367A1, “Herbicidal Compositions Comprising 4-amino-3,6-dichloropyridine-2-carboxylic Acid” (BASF SE, priority 2008, published 2011).

What was measured:
Type in all cases: in vivo
Stellaria media [1] = assay: Field trial Example 1, successive application: damage on STEME
From the text: (§1) Aminiopyralid was used as commercial aquaeous solution having an active ingredient concentration of 240 g/l (Milestone™). Metazachlor was used as a commercial suspension concentrate having an active ingredient concentration of 500 g/l (Butisan S®).
(§2) The performance of aminopyralid applied as an alone treatment at 15, 30 and 50 g a.i./ha applied as an early post emergence treatment and an post emergence treatment in comparison to two different applications including metazachlor at 500 g a.i./ha as an early post emergence application in succession of aminopyralid as a post emergence application at 15 and 30 g a.i./ha was assessed in an oilseed rape field trials.
(§3) The early post emergence treatment was applied by means of fine distributed nozzles at the growth stage (GS) of the crop BBCH 11-12.
(§4) The post emergence treatment was applied by means of fine distributed nozzles at the growth stage (GS) of the crop BBCH 13-14.
(§5) The test period extended over the autumn and spring season (205 days).
(§6) In the following experiments, the herbicidal activity for the individual herbicide compounds (solo application) and of the herbicidal succession was assessed 4 times:
(§7) The evaluation for the damage on undesired weeds caused by the chemical compositions was carried out using a scale from 0 to 100%, compared to the untreated control plants. Here, 0 means no damage and 100 means complete destruction of the plants.

Capsella bursa-pasturis = assay: Greenhouse trial, post-emergence: CAPBP; details: aminopyralid 10 g ai/ha solo, post-emergence (Table 10)
Experimental: (§8) The test plants have been seeded, separately for each species, in plastic containers in sandy loamy soil containing 5% organic matter.
(§9) For the post emergence treatment, the plants were first grown to the 2 leaf station (GS 12). Here, the herbicidal compositions were suspended or emulsified in water as distribution medium and sprayed using finely distributing nozzels.
(§10) The plants have been cultivated due to there individual requirements at 10-25° C. and 20-35° C. The plants were irrigated due to there necessity. […]
as §7
(§11) Calculation of expected activity of binary mixtures was done by using the Colby-Formula according to Example 1.

Stellaria media [2] = assay: Greenhouse trial, post-emergence: STEME; details: post-emergence (Tables 7-9)
Experimental: as §8, §9, §10, §7, §11

Anthemis arvensis [3] = assay: Field trial Example 1, successive application: damage on ANTAR
From the text: as §1, §2, §3, §4, §5, §6, §7

Matricaria inodora = assay: Field trial Example 1, successive application: damage on MATIN
From the text: as §1, §2, §3, §4, §5, §6, §7

Anthemis arvensis [4] = assay: Field trial Example 2, combined application: ANTAR
Experimental: as §1, §7
(§12) The value E, which is to be expected if the activity of the individual compounds is just additive, was calculated using the method of S. R. Colby (1967) “Calculating synergistic and antagonistic responses of herbicide combinations”, Weeds 15, p. 22 ff.
(§13) The performance of aminopyralid, applied as an alone treatment at […] and 15 g ai/ha, and the performance of metazachlor, applied as an alone treatment at 375 and 500 g ai/ha, as well as the mixtures of the both compounds have been assessed in winter oilseed rape field trials. The trials have been conducted in Germany at two locations.
(§14) Post emergence treatment was applied by means of fine distributed nozzels at the growth stage (GS/BBCH 11/12).

Apera spica-venti = assay: Field trial Example 1, successive application: damage on APESV
From the text: as §1, §2, §3, §4, §5, §6, §7

Centaurea cyanus = assay: Field trial Example 2, combined application: CENCY; details: Aminopyralid 7.5 g ai/ha solo, 78 DAT
Experimental: as §1, §7, §12, §13, §14

[5] = 15 g ai/ha, treatment A early post emergence, DAT 25/DALT 10
[6] = 15 g ai/ha, treatment A early post emergence, DAT 65/DALT 50
[7] = 15 g ai/ha, treatment A early post emergence, DAT 176/DALT 161
[8] = 15 g ai/ha, treatment B post emergence, DAT 25/DALT 10
[9] = 15 g ai/ha, treatment B post emergence, DAT 65/DALT 50
[10] = 15 g ai/ha, treatment B post emergence, DAT 176/DALT 161
[11] = 30 g ai/ha, treatment A early post emergence, DAT 25/DALT 10
[12] = 30 g ai/ha, treatment A early post emergence, DAT 65/DALT 50
[13] = 30 g ai/ha, treatment A early post emergence, DAT 176/DALT 161
[14] = 30 g ai/ha, treatment B post emergence, DAT 25/DALT 10
[15] = 30 g ai/ha, treatment B post emergence, DAT 65/DALT 50
[16] = 30 g ai/ha, treatment B post emergence, DAT 176/DALT 161
[17] = 50 g ai/ha, treatment A early post emergence, DAT 25/DALT 10
[18] = 50 g ai/ha, treatment A early post emergence, DAT 65/DALT 50
[19] = 50 g ai/ha, treatment A early post emergence, DAT 176/DALT 161
[20] = 50 g ai/ha, treatment B post emergence, DAT 25/DALT 10
[21] = 50 g ai/ha, treatment B post emergence, DAT 65/DALT 50
[22] = 50 g ai/ha, treatment B post emergence, DAT 176/DALT 161
[23] = aminopyralid 15 g ai/ha, treatment A, DAT 205/DALT 190
[24] = aminopyralid 15 g ai/ha, treatment B, DAT 205/DALT 190
[25] = aminopyralid 30 g ai/ha, treatment A, DAT 205/DALT 190
[26] = aminopyralid 30 g ai/ha, treatment B, DAT 205/DALT 190
[27] = aminopyralid 50 g ai/ha, treatment A, DAT 205/DALT 190
[28] = aminopyralid 50 g ai/ha, treatment B, DAT 205/DALT 190

SMILES: Nc1cc(Cl)nc(C(=O)O)c1Cl [aminopyralid, 4-amino-3,6-dichloropyridine-2-carboxylic acid]
- damage on STEME (Stellaria media [1]; [5]): 32%
- damage on STEME (Stellaria media [1]; [6]): 52%
- damage on STEME (Stellaria media [1]; [7]): 93%
- damage on STEME (Stellaria media [1]; [8]): 12%
- damage on STEME (Stellaria media [1]; [9]): 50%
- damage on STEME (Stellaria media [1]; [10]): 77%
- damage on STEME (Stellaria media [1]; [11]): 90%
- damage on STEME (Stellaria media [1]; [12]): 97%
- damage on STEME (Stellaria media [1]; [13]): 98%
- damage on STEME (Stellaria media [1]; [14]): 38%
- damage on STEME (Stellaria media [1]; [15]): 68%
- damage on STEME (Stellaria media [1]; [16]): 95%
- damage on STEME (Stellaria media [1]; [17]): 100%
- damage on STEME (Stellaria media [1]; [18]): 100%
- damage on STEME (Stellaria media [1]; [19]): 100%
- damage on STEME (Stellaria media [1]; [20]): 67%
- damage on STEME (Stellaria media [1]; [21]): 88%
- damage on STEME (Stellaria media [1]; [22]): 95%
- damage on STEME (Stellaria media [1]; [23]): 93%
- damage on STEME (Stellaria media [1]; [24]): 78%
- damage on STEME (Stellaria media [1]; [25]): 100%
- damage on STEME (Stellaria media [1]; [26]): 98%
- damage on STEME (Stellaria media [1]; [27]): 100%
- damage on STEME (Stellaria media [1]; [28]): 97%
- % activity 28 DAT (Capsella bursa-pasturis): 25%
- % activity 28 DAT (Stellaria media [2]; aminopyralid 5 g ai/ha solo): 35%
- % activity 28 DAT (Stellaria media [2]; aminopyralid 10 g ai/ha solo): 65%
- damage on ANTAR (Anthemis arvensis [3]; [5]): 97%
- damage on ANTAR (Anthemis arvensis [3]; [6]): 96%
- damage on ANTAR (Anthemis arvensis [3]; [7]): 100%
- damage on ANTAR (Anthemis arvensis [3]; [8]): 87%
- damage on ANTAR (Anthemis arvensis [3]; [9]): 87%
- damage on ANTAR (Anthemis arvensis [3]; [10]): 98%
- damage on ANTAR (Anthemis arvensis [3]; [11]): 100%
- damage on ANTAR (Anthemis arvensis [3]; [12]): 98%
- damage on ANTAR (Anthemis arvensis [3]; [13]): 100%
- damage on ANTAR (Anthemis arvensis [3]; [14]): 82%
- damage on ANTAR (Anthemis arvensis [3]; [15]): 91%
- damage on ANTAR (Anthemis arvensis [3]; [16]): 100%
- damage on ANTAR (Anthemis arvensis [3]; [17]): 100%
- damage on ANTAR (Anthemis arvensis [3]; [18]): 100%
- damage on ANTAR (Anthemis arvensis [3]; [19]): 100%
- damage on ANTAR (Anthemis arvensis [3]; [20]): 93%
- damage on ANTAR (Anthemis arvensis [3]; [21]): 94%
- damage on ANTAR (Anthemis arvensis [3]; [22]): 98%
- damage on ANTAR (Anthemis arvensis [3]; [23]): 100%
- damage on ANTAR (Anthemis arvensis [3]; [24]): 100%
- damage on ANTAR (Anthemis arvensis [3]; [25]): 100%
- damage on ANTAR (Anthemis arvensis [3]; [26]): 100%
- damage on ANTAR (Anthemis arvensis [3]; [27]): 100%
- damage on ANTAR (Anthemis arvensis [3]; [28]): 100%
- damage on MATIN (Matricaria inodora; [5]): 97%
- damage on MATIN (Matricaria inodora; [6]): 96%
- damage on MATIN (Matricaria inodora; [7]): 100%
- damage on MATIN (Matricaria inodora; [8]): 88%
- damage on MATIN (Matricaria inodora; [9]): 88%
- damage on MATIN (Matricaria inodora; [10]): 98%
- damage on MATIN (Matricaria inodora; [11]): 100%
- damage on MATIN (Matricaria inodora; [12]): 98%
- damage on MATIN (Matricaria inodora; [13]): 100%
- damage on MATIN (Matricaria inodora; [14]): 82%
- damage on MATIN (Matricaria inodora; [15]): 91%
- damage on MATIN (Matricaria inodora; [16]): 100%
- damage on MATIN (Matricaria inodora; [17]): 100%
- damage on MATIN (Matricaria inodora; [18]): 100%
- damage on MATIN (Matricaria inodora; [19]): 100%
- damage on MATIN (Matricaria inodora; [20]): 88%
- damage on MATIN (Matricaria inodora; [21]): 94%
- damage on MATIN (Matricaria inodora; [22]): 98%
- damage on MATIN (Matricaria inodora; [23]): 100%
- damage on MATIN (Matricaria inodora; [24]): 100%
- damage on MATIN (Matricaria inodora; [25]): 100%
- damage on MATIN (Matricaria inodora; [26]): 100%
- damage on MATIN (Matricaria inodora; [27]): 100%
- damage on MATIN (Matricaria inodora; [28]): 100%
- % activity (Anthemis arvensis [4]; Aminopyralid 7.5 g ai/ha solo, 29 DAT): 77%
- % activity (Anthemis arvensis [4]; Aminopyralid 15 g ai/ha solo, 29 DAT): 94%
- % activity (Anthemis arvensis [4]; Aminopyralid 15 g ai/ha solo, 78 DAT): 96%
- damage on APESV (Apera spica-venti; [6]): 28%
- damage on APESV (Apera spica-venti; [7]): 28%
- damage on APESV (Apera spica-venti; [9]): 32%
- damage on APESV (Apera spica-venti; [10]): 32%
- damage on APESV (Apera spica-venti; [12]): 47%
- damage on APESV (Apera spica-venti; [13]): 47%
- damage on APESV (Apera spica-venti; [15]): 38%
- damage on APESV (Apera spica-venti; [16]): 38%
- damage on APESV (Apera spica-venti; [18]): 85%
- damage on APESV (Apera spica-venti; [19]): 85%
- damage on APESV (Apera spica-venti; [21]): 55%
- damage on APESV (Apera spica-venti; [22]): 55%
- damage on APESV (Apera spica-venti; [23]): 28%
- damage on APESV (Apera spica-venti; [24]): 45%
- damage on APESV (Apera spica-venti; [25]): 47%
- damage on APESV (Apera spica-venti; [26]): 38%
- damage on APESV (Apera spica-venti; [27]): 85%
- damage on APESV (Apera spica-venti; [28]): 55%
- % activity (Centaurea cyanus): 98%
